The values that follow come from patent US20060089824A1, “Methods and systems for drug screening and computational modeling” (priority 2002, published 2006).

For this assay, the target named is D1 receptor (Homo sapiens, UniProt P21728). The experiment in a line: Calculated fraction of D1 receptors occupied from Ki and free drug concentration. The note with it: at a therapeutic olanzapine level. The text has this:
In particular, affinities of many drugs for receptors are well known. For example, Goodman and Gilmans “The Pharmacological Basis of Therapeutics,” Tenth Edition. […] [formula]

Chain of D1 receptor (P21728 whole entry): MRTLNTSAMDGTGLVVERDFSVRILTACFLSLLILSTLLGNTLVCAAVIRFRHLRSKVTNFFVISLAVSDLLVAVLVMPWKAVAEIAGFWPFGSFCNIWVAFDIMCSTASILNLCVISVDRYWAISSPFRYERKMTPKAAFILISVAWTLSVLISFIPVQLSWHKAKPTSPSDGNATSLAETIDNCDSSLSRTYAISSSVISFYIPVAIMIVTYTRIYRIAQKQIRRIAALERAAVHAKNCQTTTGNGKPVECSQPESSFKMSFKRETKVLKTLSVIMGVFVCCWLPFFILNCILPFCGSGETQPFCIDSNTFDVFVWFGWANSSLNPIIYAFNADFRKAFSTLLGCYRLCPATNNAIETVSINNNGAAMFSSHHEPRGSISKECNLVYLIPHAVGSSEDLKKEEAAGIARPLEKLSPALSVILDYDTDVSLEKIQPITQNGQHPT

As to `Cc1cc2c(s1)Nc1ccccc1N=C2N1CCN(C)CC1` [olanzapine], the “D1 receptors blocked (antagonized)” value is given as “approximately 47%”.
